The numbers were not newly measured in patent US20040143855A1, “Ion channels as targets for sleep-related drugs” (priority 2002, published 2004), which cites them from elsewhere.

One data set deals with T1, TREK-1 (Homo sapiens, UniProt O95069).
T1 sequence (O95069 1-426): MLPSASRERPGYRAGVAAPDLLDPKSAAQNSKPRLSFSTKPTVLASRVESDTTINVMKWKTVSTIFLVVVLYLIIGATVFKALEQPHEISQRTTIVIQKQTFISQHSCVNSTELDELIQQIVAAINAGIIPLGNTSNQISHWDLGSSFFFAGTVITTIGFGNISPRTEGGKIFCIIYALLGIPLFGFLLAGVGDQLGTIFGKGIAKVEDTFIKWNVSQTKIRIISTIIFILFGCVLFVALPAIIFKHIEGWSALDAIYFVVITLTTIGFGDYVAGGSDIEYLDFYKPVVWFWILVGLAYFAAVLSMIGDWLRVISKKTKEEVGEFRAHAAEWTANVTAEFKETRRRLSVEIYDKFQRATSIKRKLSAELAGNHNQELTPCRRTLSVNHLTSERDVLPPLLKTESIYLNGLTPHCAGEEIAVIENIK
Conditions: volatile general anesthetics.

The test system of a further data set is Drosophila. Conditions: flies given the drug.

Structures are written as SMILES.

With `FC(F)(F)C(Cl)Br` (stereo not shown) [halothane], the “effect on TREK-1 channel” value at TREK-1 was “activated”.

On to `ClC(Cl)Cl` [chloroform], for which, at TREK-1, the “effect on TREK-1 channel” value is listed as “activated”.

`CCOCC` [diethylether]: the “effect on TREK-1 channel” value at TREK-1 is given as “activated”.

Turning to `FC(F)OC(Cl)C(F)(F)F` (stereo not shown) [isoflurane], on TREK-1, the “effect on TREK-1 channel” value is “activated”.

`OCCOCCN1CCN(C(c2ccccc2)c2ccc(Cl)cc2)CC1` (stereo not shown) [hydroxyzine]: in the data set with Drosophila, the “sleep (amount)” value was “increased sleep” and the sleep latency entry is on record as “reduced its latency”.

In the case of `Cn1c(=O)c2c(ncn2C)n(C)c1=O` [caffeine], the “sleep (amount)” value in the data set on Drosophila is recorded as “dose-dependent decrease in sleep”.
